These results are taken from patent US20260152779A1, “GENETICALLY ENGINEERED FUMONISIN SENSITIVE YEAST” (FFOQSI GMBH, priority 2022, published 2026).

Data set [1] has as its system Arabidopsis. The note with it: bioassay e.g. 10 days; cited from earlier work.
In data set [2] the test system is brine shrimp (Artemia salina). The note with it: cited from earlier work.
Data set [3] relates to human HepG2 cells. The note with it: read-out: acute cytotoxicity (IC50); cited from earlier work.
Data set [4] relates to YTKT33. Kind of data set: spotting on SC-URA agar plates with FB1, strain YTKT33. The data set is classed as cell-based, Saccharomyces cerevisiae. The note with it: SC-URA agar plates, 87,88% pure FB1, empty pYes2-PTEF1 vector, 30° C., 5 days. As to the method: In a further setting, sensitive yeast strains YRU74, YRU94ML, YTKT33 and the original yeast strain YPH500 were transformed with the empty pYes2-PTEF1 vector containing the marker URA3, so that they could grow on Synthetic Complete media lacking uracil (SC-URA). They were grown in SC-URA overnight and rediluted to an OD600 of 0.1 in the morning. After reaching exponential growth (OD600>0.3), they were diluted again for spottings on plates containing 87,88% pure FB1. 3 μl of each strain/dilution was pipetted onto the plates and left to grow at 30° C. for 5 days. The photos of these plates are shown above. […] Three spots were spotted on each plate for every strain.

Data set [5] deals with YTKT33. Kind of data set: spotting on YPD agar plates with crude FB1, strain YTKT33. It is filed as cell-based, Saccharomyces cerevisiae. The note with it: crude fumonisin stock (FB1+FB2+FB3) containing >70% FB1, 30° C., 5 days. As to the method: (§1) In a further setting, the sensitive yeast strains YRU74, YRU94ML and YTKT33 were grown in YPD (1% yeast extract, 2% peptone, 2% glucose) overnight alongside the original resistant YPH500 strain. The next day, they were rediluted to an OD600 of 0.1. After reaching exponential growth (>0.3) they were diluted to an OD of 0.1 and diluted further (1:10 and 1:100) for spottings on YPD agar plates alongside containing different concentrations of the crude fumonisin stock (FB1+FB2+FB3, measured via LC-MS/MS) containing >70% FB1. The concentrations used for the prepared FB1 plates were calculated based on the measured FB1. 3 μl of each strain/dilution was pipetted onto the plates and left to grow at 30° C. for 5 days. The photos of these plates are shown above. […] Three different dilutions of each strain were spotted on every plate. […] Both YRU94ML and YTKT33 growth is inhibited at a concentration of 250 μM FB1.

The test system of data set [6] is YRU94ML. Kind of data set: spotting on YPD agar plates with crude FB1, strain YRU94ML. The data set is classed as cell-based, Saccharomyces cerevisiae. The note with it: crude fumonisin stock (FB1+FB2+FB3) containing >70% FB1, 30° C., 5 days. As to the method: as §1
In data set [7] the test system is primary rat hepatocytes. The note with it: read-out: acute cytotoxicity (IC50 values); cited from earlier work.
The test system of data set [8] is wild type yeast. Kind of data set: growth inhibition of wild type yeast by FB1. The data set is classed as cell-based, Saccharomyces cerevisiae. The note with it: at a concentration of 1000 μM FB1 or more. The text has this:
Growth rates and growth inhibition can be determined by any method well known in the art, such as, but not limited to, determining cell number, using e.g. a hemocytometer, determining cell viability, e.g. using methylene blue staining, or determining relative growth calculated as the resultant optical density ratio of toxin treated cultures to untreated controls. Also yeast dry weight can be determined or conductance change can be measured during yeast growth, employing direct and indirect methods.

For data set [9], the system named is YPH500. Kind of data set: paper disk inhibition zone assay, wild-type strain YPH500. It is filed as cell-based, Saccharomyces cerevisiae.
For data set [10], the system named is YTKT33. Briefly: FB1 resistance conferred by candidate genes expressed in YTKT33 on SC-URA FB1 plates. It is filed as cell-based, Saccharomyces cerevisiae. The note with it: SC-URA plates with different FB1 concentrations, spottings OD600 0.1, 0.01, 0.001. The text has this: The plasmids described by Janevska et al., 2020, were kindly provided by Dr. Vito Valiante. Plasmid pYes2-PTEF1 (=empty vector, TEF1 promoter) was used to express different genes assumed to confer resistance against FB1. Candidate genes were coned behind the TEF1 promoter into that plasmid and subsequently transformed into the sensitive yeast strain YTKT33 for testing.
YOR1 (with endogenous promoter on an episomal (multicopy 2 μm) plasmid) and FvCER1 (positive control, resistance conferring ceramide synthase from Fusarium verticillioides) were used as controls. Sphingopyxis sp.

Read-outs that look alike come from different tables or passages of the source.

A word on the IC50: it is the concentration that gives 50% inhibition. Consider Fumonisin B1 [FB1], for which the “FB1 concentration at which seed germination and root development is already strongly inhibited” value in [1] was 1 µM. Also, the IC50 in [2] (24 h incubation) is roughly 10 µM; in data set [2] (48 h incubation) it was 1.7 µM; in data set [3] it was 399 µM; in data set [7] it was 2000 µM. Moreover, the “FB1 concentration at which growth is inhibited” value in data set [4] is roughly 100 µM; in data set [5], 250 µM; in data set [6], 250 µM. In data set [8], the “growth inhibition of wild type yeast” value is given as “does not show significant growth inhibition”.

As for fumonisin, the “development of an inhibition zone” value in [9] is recorded as “did not result in the development of an inhibition zone”.

B1: YOR1: yeast ABC transporter gene with endogenous promoter on an episomal multicopy plasmid, used as control (protein, UniProt P53049 1-1477, looked up)
Oligomycin resistance …: MTITVGDAVSETELENKSQNVVLSPKASASSDISTDVDKDTSSSWDDKSLLPTGEYIVDRNKPQTYLNSDDIEKVTESDIFPQKRLFSFLHSKKIPEVPQTDDERKIYPLFHTNIISNMFFWWVLPILRVGYKRTIQPNDLFKMDPRMSIETLYDDFEKNMIYYFEKTRKKYRKRHPEATEEEVMENAKLPKHTVLRALLFTFKKQYFMSIVFAILANCTSGFNPMITKRLIEFVEEKAIFHSMHVNKGIGYAIGACLMMFVNGLTFNHFFHTSQLTGVQAKSILTKAAMKKMFNASNYARHCFPNGKVTSFVTTDLARIEFALSFQPFLAGFPAILAICIVLLIVNLGPIALVGIGIFFGGFFISLFAFKLILGFRIAANIFTDARVTMMREVLNNIKMIKYYTWEDAYEKNIQDIRTKEISKVRKMQLSRNFLIAMAMSLPSIASLVTFLAMYKVNKGGRQPGNIFASLSLFQVLSLQMFFLPIAIGTGIDMIIGLGRLQSLLEAPEDDPNQMIEMKPSPGFDPKLALKMTHCSFEWEDYELNDAIEEAKGEAKDEGKKNKKKRKDTWGKPSASTNKAKRLDNMLKDRDGPEDLEKTSFRGFKDLNFDIKKGEFIMITGPIGTGKSSLLNAMAGSMRKTDGKVEVNGDLLMCGYPWIQNASVRDNIIFGSPFNKEKYDEVVRVCSLKADLDILPAGDMTEIGERGITLSGGQKARINLARSVYKKKDIYLFDDVLSAVDSRVGKHIMDECLTGMLANKTRILATHQLSLIERASRVIVLGTDGQVDIGTVDELKARNQTLINLLQFSSQNSEKEDEEQEAVVAGELGQLKYESEVKELTELKKKATEMSQTANSGKIVADGHTSSKEERAVNSISLKIYREYIKAAVGKWGFIALPLYAILVVGTTFCSLFSSVWLSYWTENKFKNRPPSFYMGLYSFFVFAAFIFMNGQFTILCAMGIMASKWLNLRAVKRILHTPMSYIDTTPLGRILNRFTKDTDSLDNELTESLRLMTSQFANIVGVCVMCIVYLPWFAIAIPFLLVIFVLIADHYQSSGREIKRLEAVQRSFVYNNLNEVLGGMDTIKAYRSQERFLAKSDFLINKMNEAGYLVVVLQRWVGIFLDMVAIAFALIITLLCVTRAFPISAASVGVLLTYVLQLPGLLNTILRAMTQTENDMNSAERLVTYATELPLEASYRKPEMTPPESWPSMGEIIFENVDFAYRPGLPIVLKNLNLNIKSGEKIGICGRTGAGKSTIMSALYRLNELTAGKILIDNVDISQLGLFDLRRKLAIIPQDPVLFRGTIRKNLDPFNERTDDELWDALVRGGAIAKDDLPEVKLQKPDENGTHGKMHKFHLDQAVEEEGSNFSLGERQLLALTRALVRQSKILILDEATSSVDYETDGKIQTRIVEEFGDCTILCIAHRLKTIVNYDRILVLEKGEVAEFDTPWTLFSQEDSIFRSMCSRSGIVENDFENRS
Take B1: the “resistance to FB1 conferred by the expressed gene” value in data set [10] is “weak resistance”.
